From EP4772500A1, “NOVEL ISOXAZOLE COMPOUND AS TM4SF5-SPECIFIC INHIBITOR AND USE THEREOF” (Seoul National University R&DB Foundation, priority 2023, dated 2025)
Where two headings read alike, the source gives them in different places. Blank lines part the entries; values can stand above or below the compound they belong to.

Tests used:
[1] = biological target: T1, Strep-TM4SF5 obtained from HEK293FT (Homo sapiens, UniProt O14894); assay: Binding of 14C-labelled ST-5-002 to pulled-down Strep-TM4SF5
T1 construct: expressed in transfected cells; host or cells: HEK293FT, transient transfection (48 h); protein captured on streptavidin agarose from the cell extract
T1 sequence (O14894 1-197): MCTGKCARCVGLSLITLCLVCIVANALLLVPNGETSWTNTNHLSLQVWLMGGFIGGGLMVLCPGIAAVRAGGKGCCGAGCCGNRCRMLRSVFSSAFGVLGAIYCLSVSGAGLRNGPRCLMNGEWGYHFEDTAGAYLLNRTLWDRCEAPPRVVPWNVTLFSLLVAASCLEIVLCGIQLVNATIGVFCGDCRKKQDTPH
Description: For Huh7KO cells, stable cell lines were established by infecting with a retrovirus inducing the expression of pBabe-HA-EV or pBabe-HA-TM4SF5. Cell extracts were obtained, and extracts containing 0.2 or 0.25 mg of protein were reacted with an anti-HA antibody and HA-tagged TM4SF5, or with streptavidin agarose resin for Strep-PD-L1 or Strep-TM4SF5 at 4°C for 2 hours for pulldown. Subsequently, in the presence or absence of cold ST-5-002 (400 µM), the samples were treated with ^14C-labelled ST-5-002 (10 or 25 µM) and reacted at 4°C for 1 hour, after which radioactive isotope values were repeatedly measured using a TriCarb scintillation counter (PerkinElmer, Waltham, MA).
After culturing HEK293FT cells transfected with Strep-EV or Strep-TM4SF5 expression vectors, or Huh7KO cells stably expressing pBabe-HA-EV or pBabe-HA-TM4SF5, cell extracts were obtained. Extracts containing 1 mg of protein were pulled down by reacting with streptavidin agarose resin for Strep-tagged TM4SF5 or with an anti-HA antibody for HA-tagged TM4SF5 at 4°C for 4 hours. The pulled-down proteins were treated with ^14C-labelled ST-5-002 at various concentrations (10 nM, 100 nM, 1 µM, 5 µM, 10 µM, 50 µM) and reacted at 4°C for 1 hour, after which radioactive isotope values were repeatedly measured using a TriCarb scintillation counter (PerkinElmer, Waltham, MA). The EC50 was calculated by normalizing the average radioactive isotope value of TM4SF5 obtained through the measurements by dividing it by the average value of EV.
(a) Expression vectors for a control vector, TM4SF1, TM4SF5 WT, and R113Q, C118/145A, H127A, and N138A mutants of TM4SF5 were injected into the HEK293FT cell line, which was confirmed not to express TM4SF5, and allowed to express for 48 hours. (b) Huh7KO cell lines, in which TM4SF5 was knocked out in Huh7, were stably infected with a retrovirus encoding pBabe-EV or pBabe-TM4SF5-HA. […] For the experimental samples of each condition, radioactive isotope values were repeatedly measured using a TriCarb scintillation counter (PerkinElmer, Waltham, MA).

[2] = tested on: TM4SF5-non-expressing cells (SNU449Cp); assay: 2D cell growth/proliferation, TM4SF5-non-expressing cells; assay type: cell-based, human; conditions: 2D environment (FIG. 3a)
Description: The drugs treated were the positive control drug TSAHC or the ST-1-025 isoxazole compound at the given concentrations. From the time of starting culture (0 day), (FIG. 3a) in the case of 2D culture, the number of cells was measured after treating with the drug every 24 hours, or (FIG. 3b) in a 3D environment, the proliferation of cells (spheres) was observed and photographed with an optical microscope on the 5th and 7th days after a single drug treatment at the start of culture.

Alb-TG^Tm4sf5-Flag mice = assay: DEN-induced liver cancer model in TM4SF5 transgenic animals; assay type: in vivo
Description: A liver cancer model was induced in 2-week-old male wild type (WT), Alb-TG^Tm4sf5-Flag [genetically modified animals in which Tm4sf5 expression is excessively regulated by the promoter of the Albumin gene, custom-made by Macrogen Co., Ltd.], or Tm4sf5^-/- KO C57BL/6N male animals by a single intraperitoneal injection (IP injection) of DEN (diethylnitrosamine, Sigma-Aldrich) at a concentration of 25 mg/kg, followed by raising for […]. After the DEN treatment, the animals were raised in a pathogen-free room animal facility where temperature and humidity were well controlled under a normal diet for 40 weeks. During the last 6 weeks, an isoxazole drug (dissolved in 40% DMSO) at the indicated concentration was treated by intraperitoneal injection twice a week. Forty-six weeks after the DEN injection, the animals were sacrificed, and liver tissues were analyzed through methods of tissue staining, Western blot, and qRT-PCR.
In cases where a liver cancer model is induced by treating animals with diethylnitrosamine (DEN), liver cancer formation was induced by a single intraperitoneal injection (IP injection) of DEN into 2-week-old animals, followed by raising them for 46 weeks. […] Thereafter, the animals were sacrificed, and liver tissues were obtained and analyzed. […]

EC50 ([1]; 14C-labelled ST-5-002, Strep-TM4SF5, 4°C, 1 hour (FIG. 19a), read-out: EC50 of binding to TM4SF5): 8.87 µM
binding of 14C-labelled ST-5-002 compared to the control and TM4SF1 ([1]; Strep-TM4SF5 from HEK293FT (FIG. 19a)): bound
EC50 ([1]; range depending on the cell source and the type of tag (Strep-TM4SF5 and HA-TM4SF5), read-out: EC50 values of binding to TM4SF5): 0.85 to 8.8 µM
Structure (SMILES): Cc1ccc(C(=O)Nc2ccc(-c3cc(-c4ccc(O)cc4)no3)cc2)cc1 [ST-5-002, N-(4-(3-(4-hydroxyphenyl)isoxazole-5-yl)phenyl)-4-methylbenzamide]

Structure (SMILES): COc1ccc(-c2cc(-c3ccc(N)cc3)no2)cc1 [ST-1-025, 4-(5-(4-methoxyphenyl)isoxazole-3-yl)aniline]
growth or proliferation [2]: no significant difference

Structure (SMILES): COc1ccc(-c2cc(-c3ccc(NC(C)=O)cc3)no2)cc1 [ST-2-001, N-(4-(5-(4-methoxyphenyl)isoxazole-3-yl)phenyl)acetamide]
cancer formation (Alb-TG^Tm4sf5-Flag mice; DEN 25 mg/kg, drug 5 mg/kg IP twice a week for the final 6 weeks, Alb-TG^Tm4sf5-Flag mice (FIG. 23b)): minimal or did not occur
mRNA expressions of NK cell activating receptor factors such as SLAMF7, NKG2D, CRTAM, DNAM-1, and CD27 (Alb-TG^Tm4sf5-Flag mice; qRT-PCR of liver tissues (FIG. 23c)): partially recovered and increased
